US5128362A, “1-aminomethyl-1,2,3,4-tetrahydronaphthalenes” (Abbott Laboratories, priority 1990, dated 1992)
Where a name gives a salt, the structure may show the parent alone. Read-outs that look alike come from different tables or passages of the source.

Key:
alpha 2 receptor [1] = target: T1, alpha 2 receptor (Rattus norvegicus, UniProt P22909); test: Radioligand binding, [3H]rauwolscine, rat cerebral cortices
T1 construct: rat cerebral cortices; from tissue; host or cells: rat cerebral cortices
T1 sequence (P22909 1-465): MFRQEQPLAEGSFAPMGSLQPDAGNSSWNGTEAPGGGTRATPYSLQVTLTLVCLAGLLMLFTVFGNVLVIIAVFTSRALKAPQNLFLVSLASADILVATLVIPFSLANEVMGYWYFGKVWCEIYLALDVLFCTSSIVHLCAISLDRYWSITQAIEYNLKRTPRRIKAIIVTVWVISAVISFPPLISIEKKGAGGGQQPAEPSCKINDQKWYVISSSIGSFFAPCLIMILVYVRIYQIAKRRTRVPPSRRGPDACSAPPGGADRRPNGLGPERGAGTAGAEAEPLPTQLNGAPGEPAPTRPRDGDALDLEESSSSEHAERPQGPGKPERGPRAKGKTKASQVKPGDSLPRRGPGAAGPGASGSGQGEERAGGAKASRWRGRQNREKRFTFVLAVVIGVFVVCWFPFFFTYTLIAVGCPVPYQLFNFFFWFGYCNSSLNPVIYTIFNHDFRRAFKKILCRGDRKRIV
Description: (§1) The compounds were assessed for alpha-adrenergic receptor subtype selectivity by use of radioligand binding techniques as described previously (DeBernardis et. al. J. Med. Chem. 28, 1398 (1985)).

alpha 2 receptor [2] = test: as above; settings: Ki alpha 1/Ki alpha-2
Description: as §1

COc1ccc2c(c1)CCCC2CN(C)CCc1cccs1 (centres unmarked) [Example 5, 1-((N-Methylamino)methyl-N-(2-(2-thienyl)ethyl))-6-methoxy tetralin methanesulfonate]
Ki (alpha 2 receptor [1]; read-out: Ki alpha-2): 0.8 nM

COc1ccc2c(c1)CCCC2CN(C)CCc1cccc(F)c1 (centres unmarked) [Example 6b, 1-((N-methylamino)methyl-N-(2-(m-fluorophenyl)ethyl))-6-methoxy tetralin hydrochloride]
Ki (alpha 2 receptor [1]; read-out: Ki alpha-2): 5 nM

COc1ccc2c(c1)CCCC2CN(C)CCc1ccsc1 (centres unmarked) [Example 6d, 1-((N-methylamino)methyl-N-(2-(3-thienyl)ethyl))-6-methoxy tetralin hydrochloride]
Ki (alpha 2 receptor [1]; read-out: Ki alpha-2): 1.5 nM

COc1ccc2c(c1)CCCC2CN(C)CCC1CCCC1 (centres unmarked) [Example 6f, 1-((N-methylamino)methyl-N-(2-(cyclopentyl)ethyl))-6-methoxy tetralin hydrochloride]
Ki (alpha 2 receptor [1]): 6.5 nM

COc1ccc2c(c1)CCCC2CN(C)CCC1CCCS1 (centres unmarked) [Example 6h, 1-((N-methylamino)methyl-N-(2-(2-tetrahydrothienyl)ethyl)) 6-methoxy tetralin hydrochloride]
Ki (alpha 2 receptor [1]; read-out: Ki alpha-2): 3.5 nM
alpha-2 - Selectivity Ki alpha 1/Ki alpha-2 (alpha 2 receptor [2]): 430

CN(CCc1cccs1)CC1CCCc2cc(O)ccc21 (centres unmarked) [Example 7, 1-((N-Methylamino)methyl-N-(2-(2-thienyl)ethyl))-6-hydroxy tetralin hydrochloride]
Ki (alpha 2 receptor [1]; read-out: Ki alpha-2): 1.6 nM

COc1ccc2c(c1)CCCC2CN(C)CCc1cccn1C (centres unmarked) [Example 12, 1-((N-Methylamino)methyl-N-(2-(N-methyl-2-pyrrolyl)-ethyl))-6-methoxy tetralin fumarate]
Ki (alpha 2 receptor [1]; read-out: Ki alpha-2): 5 nM

CN(CCc1cccs1)CC1CCCc2ccccc21 (centres unmarked) [Example 22, 1-((N-Methylamino)methyl-N-(2-(2-thienyl)ethyl)) tetralin hydrochloride]
Ki (alpha 2 receptor [1]; read-out: Ki alpha-2): 1.3 nM

CN(CCc1cccs1)CC1CCCc2c1ccc1c2OCO1 (centres unmarked) [Example 23, 1-((N-Methylamino)methyl-N-(2-(2-thienyl)ethyl))-5,6-methylenedioxy tetralin hydrochloride]
Ki (alpha 2 receptor [1]; read-out: Ki alpha-2): 1.7 nM

COc1cc2c(c(OC)c1)C(CN(C)CCc1cccs1)CCC2 (centres unmarked) [Example 26, 1-((N-Methylamino)methyl-N-(2-(2-thienyl)ethyl))-6,8-dimethoxy tetralin hydrochloride]
Ki (alpha 2 receptor [1]; read-out: Ki alpha-2): 0.6 nM

COc1ccc2c(c1)C(CN(C)CCc1cccs1)CCC2 (centres unmarked) [Example 27, 1-((N-Methylamino)methyl-N-(2-(2-thienyl)ethyl))-7-methoxy tetralin hydrochloride]
Ki (alpha 2 receptor [1]; read-out: Ki alpha-2): 2 nM

CN(CCc1cccs1)CC1CCCc2c1ccc1c2OCCO1 (centres unmarked) [Example 30, 1-((N-Methylamino)methyl-N-(2-(2-thienyl)ethyl))-5,6-ethylenedioxy tetralin hydrochloride]
Ki (alpha 2 receptor [1]; read-out: Ki alpha-2): 4 nM

Cc1cc(O)c(O)c2c1C(CN(C)CCc1cccc(F)c1)CCC2 (centres unmarked) [Example 34, 1-((N-Methylamino)methyl-N-(2-(m-fluorophenyl)ethyl))-5,6-dihydroxy-8-methyl tetralin hydrobromide]
Ki (alpha 2 receptor [1]; read-out: Ki alpha-2): 2.6 nM

COc1ccc(C)c2c1CCCC2CN(C)CCc1cccs1 (centres unmarked) [Example 36, 1-((N-Methylamino)methyl-N-(2-(2-thienyl)ethyl))-5-methoxy-8-methyl tetralin hydrochloride]
Ki (alpha 2 receptor [1]; read-out: Ki alpha-2): 6.9 nM
alpha-2 - Selectivity Ki alpha 1/Ki alpha-2 (alpha 2 receptor [2]): 95

COc1ccc2c(c1)CCC2CN(C)CCc1cccs1 (centres unmarked) [Example 37, 1-((N-Methylamino)methyl-N-(2-(2-thienyl)ethyl))-5-methoxy indane hydrochloride]
Ki (alpha 2 receptor [1]; read-out: Ki alpha-2): 3.7 nM

CCN(CCc1cccs1)CC1CCCc2cc(OC)ccc21 (centres unmarked) [Example 41, 1-((N-Ethylamino)methyl-N-(2-(2-thienyl)ethyl))-6-methoxy tetralin hydrochloride]
Ki (alpha 2 receptor [1]; read-out: Ki alpha-2): 2.9 nM

CCN(CCc1cccc(F)c1)CC1CCCc2cc(OC)ccc21 (centres unmarked) [Example 42, 1-((N-Ethylamino)methyl-N-(2-(m-fluorophenyl)ethyl))-6-methoxy tetralin hydrochloride]
Ki (alpha 2 receptor [1]; read-out: Ki alpha-2): 6.6 nM

CCN(CCc1ccco1)CC1CCCc2cc(OC)ccc21 (centres unmarked) [Example 43, 1-((N-Ethylamino)methyl-N-(2-(2-furyl)ethyl))-6-methoxy tetralin hydrochloride]
Ki (alpha 2 receptor [1]; read-out: Ki alpha-2): 6 nM

CCN(CCc1ccsc1)CC1CCCc2cc(OC)ccc21 (centres unmarked) [Example 44, 1-((N-Ethylamino)methyl-N-(2-(3-thienyl)ethyl))-6-methoxy tetralin hydrochloride]
Ki (alpha 2 receptor [1]; read-out: Ki alpha-2): 5.6 nM

CN(CCc1cccs1)CC1CCCc2cc(Cl)ccc21 (centres unmarked) [Example 49, 1-((N-Methylamino)methyl-N-(2-(2-thienyl)ethyl))-6-chloro tetralin hydrochloride]
Ki (alpha 2 receptor [1]; read-out: Ki alpha-2): 10 nM

CCCN(CCc1cccs1)CC1CCCc2cc(OC)ccc21 (centres unmarked) [Example 58, 1-((N-Propylamino)methyl)-N-(2-(2-thienyl)ethyl))-6-methoxy tetralin hydrochloride]
Ki (alpha 2 receptor [1]; read-out: Ki alpha-2): 18 nM

COc1ccc2c(c1)CCCC2CN(C)CCc1cccc(N)c1 (centres unmarked) [Example 67, 1-((N-Methylamino)methyl-N-(2-(m-aminophenyl)ethyl))-6-methoxy tetralin dihydrochloride]
Ki (alpha 2 receptor [1]; read-out: Ki alpha-2): 6 nM

CN(CCc1cccc(N)c1)CC1CCCc2cc(O)ccc21 (centres unmarked) [Example 68, 1-((N-Methylamino)methyl-N-(2-(m-aminophenyl)ethyl))-6-hydroxy tetralin dihydrobromide]
Ki (alpha 2 receptor [1]; read-out: Ki alpha-2): 6 nM

CCOc1ccc2c(c1)CCCC2CN(C)CCc1cccc(N)c1 (centres unmarked) [Example 69, 1-((N-Methylamino)methyl-N-(2-(m-aminophenyl)ethyl))-6-ethoxy tetralin dihydrochloride]
Ki (alpha 2 receptor [1]; read-out: Ki alpha-2): 13 nM
alpha-2 - Selectivity Ki alpha 1/Ki alpha-2 (alpha 2 receptor [2]): 98

CN(CCc1cccc(F)c1)CC1CCCc2ccccc21 (centres unmarked) [Example 70, 1-((N-Methylamino)methyl-N-(2-(m-fluorophenyl)ethyl))-tetralin hydrochloride]
Ki (alpha 2 receptor [1]; read-out: Ki alpha-2): 5 nM

CN(CCc1cccc(O)c1)CC1CCCc2cc(O)ccc21 (centres unmarked) [Example 82, 1-((N-Methylamino)methyl-N-(2-(m-hydroxyphenyl)ethyl))-6-hydroxy tetralin hydrochloride]
Ki (alpha 2 receptor [1]; read-out: Ki alpha-2): 4 nM

COc1ccc2c(c1)CCCC2CN(C)CCc1cccc(O)c1 (centres unmarked) [Example 83, 1-((N-Methylamino)methyl-N-(2-(m-hydroxyphenyl)ethyl))-6-methoxy tetralin hydrochloride]
Ki (alpha 2 receptor [1]; read-out: Ki alpha-2): 8 nM

CN(CCc1cccc(F)c1)CC1CCCc2c1ccc(O)c2O (centres unmarked) [Example 85, 1-((N-Methylamino)methyl-N-(2-(m-fluorophenyl)ethyl))-5,6-dihydroxy tetralin hydrochloride]
Ki (alpha 2 receptor [1]; read-out: Ki alpha-2): 1.5 nM

COc1ccc2c(c1OC)CCCC2CN(C)CCc1cccs1 (centres unmarked) [Example 86, 1-((N-Methylamino)methyl-N-(2-(2-thienyl)ethyl))-5,6-dimethoxy tetralin hydrochloride]
Ki (alpha 2 receptor [1]; read-out: Ki alpha-2): 3 nM

CN(CCc1cccs1)CC1CCCc2c1ccc(O)c2O (centres unmarked) [Example 87, 1-((N-Methylamino)methyl-N-(2-(2-thienyl)ethyl))-5,6-dihydroxy tetralin hydrochloride]
Ki (alpha 2 receptor [1]; read-out: Ki alpha-2): 1.6 nM

CN(CCc1ccccc1)CC1CCCc2ccccc21 (centres unmarked) [Example 88, 1-((N-Methylamino)methyl-N-(2-phenethyl)) tetralin hydrochloride]
Ki (alpha 2 receptor [1]; read-out: Ki alpha-2): 2 nM

CN(CCc1ccccc1)CC1CCCc2cc(N)ccc21 (centres unmarked) [Example 114, 1-((N-Methylaminomethyl-N-(2-phenylethyl))-6-aminotetralindihydrochloride]
Ki (alpha 2 receptor [1]; read-out: Ki alpha-2): 5.7 nM

CN(CCc1cccs1)CC1CCCc2c1ccc(O)c2I (centres unmarked) [Example 115, 1-((N-Methylamino)methyl-N-(2-(2-thienyl)ethyl))-5-iodo-6-hydroxy tetralin hydrochloride]
Ki (alpha 2 receptor [1]; read-out: Ki alpha-2): 3 nM

COc1cc2c(cc1C)C(CN(C)CCc1ccco1)CCC2 (centres unmarked) [Example 128, 1-((N-Methylamino)methyl-N-(2-(2-furyl)ethyl))-methoxy-7-methyl tetralin hydrochloride]
Ki (alpha 2 receptor [1]; read-out: Ki alpha-2): 8 nM

COc1cc2c(cc1F)C(CN(C)CCc1ccco1)CCC2 (centres unmarked) [Example 141, 1-((N-methylamino)methyl-N-(2-(2-furyl)ethyl))-6-methoxy-7-fluoro tetralin methanesulfonate]
Ki (alpha 2 receptor [1]; read-out: Ki alpha-2): 4.8 nM

c1csc(C2CCN(CC3CCCc4c3ccc3c4OCO3)C2)c1 (centres unmarked) [Example 144, 5,6-Methylenedioxy-1-(3-(2-thienyl)pyrrolidino-1-methyl) tetralin methanesulfonate]
Ki (alpha 2 receptor [1]; read-out: Ki alpha-2): 1.2 nM

CCN(CCc1cccs1)CC1CCCc2c1ccc1c2OCO1 (centres unmarked) [Example 164, 1-(N-Ethylamino)methyl-N-(2-(2-thienyl)ethyl))-5,6-methylenedioxy tetralin hydrochloride]
Ki (alpha 2 receptor [1]; read-out: Ki alpha-2): 3.7 nM

CCN(CCc1cccc(F)c1)CC1CCCc2c1ccc1c2OCO1 (centres unmarked) [Example 165, 1-((N-Ethylamino)methyl-N-(2-m-fluorophenethyl))-5,6-methylenedioxy tetralin hydrochloride]
Ki (alpha 2 receptor [1]; read-out: Ki alpha-2): 3.5 nM

CN(CCc1cccc(F)c1)CC1CCCc2c1ccc1c2OCO1 (centres unmarked) [Example 166, 1-((N-Methylamino)methyl-N-(2-m-fluorophenethyl))-5,6-methylenedioxy tetralin methanesulfonate]
Ki (alpha 2 receptor [1]; read-out: Ki alpha-2): 4.5 nM

CCN(CCc1cccs1)CC1CCCc2c1ccc1c2OCCO1 (centres unmarked) [Example 168, 1-((N-Ethylamino)methyl-N-(2-(2-thienyl)ethyl))-5,6-ethylenedioxy tetralin hydrochloride]
Ki (alpha 2 receptor [1]; read-out: Ki alpha-2): 6.6 nM

Fc1ccccc1C1CCN(CC2CCCc3c2ccc2c3OCO2)C1 (centres unmarked) [Example 176a, 5.6-Methylenedioxy-1-(3-(o-fluorophenyl)pyrrolidino-1-methyl) tetralin methanesulfonate]
Ki (alpha 2 receptor [1]; read-out: Ki alpha-2): 0.6 nM
